Each structure is given as a SMILES string. The source made the active and inactive calls. The calls are words filed in the database; no cut-off is given here.

For data set [1], the system named is Escherichia coli. Put plainly: Antibacterial activity against penicillin-susceptible Escherichia coli ATCC25922 assessed as log reduction in bacterial count at 1 times of MIC measured after 2 hrs by time kill kinetics assay. The format is functional, organism-based.
In data set [2] the test system is Escherichia coli. Put plainly: Antibacterial activity against penicillin-susceptible Escherichia coli ATCC25922 assessed as log reduction in bacterial count at 4 times of MIC measured after 24 hrs by time kill kinetics assay. Type of data set: functional, organism-based.
The subject of data set [3] is Escherichia coli. In words: Antibacterial activity against penicillin-susceptible Escherichia coli ATCC25922 assessed as log reduction in bacterial count at 4 times of MIC measured after 1 hrs by time kill kinetics assay. The format is functional.
Data set [4] has as its system Escherichia coli. In words: Antibacterial activity against penicillin-susceptible Escherichia coli ATCC25922 assessed as log reduction in bacterial count at 2 times of MIC measured after 12 hrs by time kill kinetics assay. The format is functional, organism-based.
A short description of data set [5]: Cytotoxicity against mouse RAW264.7 cells assessed as cell viability at 6.25 microg/ml incubated for 24 hrs by CCK8 assay relative to control. The settings on record: at 6.25 µg/mL, read-out: Activity. Type of data set: toxicity, cell-based. Background: Tetrazolium assays rely on reduction of a dye to a coloured formazan, in cell work by metabolically active cells.

Data set [6] can be described thus: Cytotoxicity against mouse RAW264.7 cells assessed as cell viability at 3.125 microg/ml incubated for 24 hrs by CCK8 assay relative to control. Type of data set: toxicity, cell-based. The settings on record: dose 3.125 µg/ml, read-out: Activity.
In data set [7] the test system is Cell membrane. Put plainly: Disruption of cell membrane integrity in penicillin-susceptible Escherichia coli ATCC25922 assessed as appearance of wrecked cells at 4 times of MIC incubated for 2 hrs by transmission electron microscopic analysis. The format is cell membranes.
Data set [8] relates to Staphylococcus aureus. In words: Inhibition of biofilm formation in methicillin-resistant Staphylococcus aureus ATCC43300 assessed as decrease in biofilm formation rate at higher concentration incubated for 24 hrs by crystal violet staining based analysis relative to control. The format is functional. The arrangement: scale not given: the % may be the effect or the level left.

The subject of data set [9] is Escherichia coli. Put plainly: Antibacterial activity against penicillin-susceptible Escherichia coli ATCC25922 assessed as log reduction in bacterial count by time kill kinetics assay. The format is functional.
Data set [10] has as its system Escherichia coli. In words: Antibacterial activity against penicillin-susceptible Escherichia coli ATCC25922 assessed as reduction in bacterial growth at 0.5 times of MIC incubated for 18 to 24 hrs and measured after 25 passages by drug resistance assay. Type of data set: functional, organism-based.
Data set [11] has as its system Cell membrane. In words: Disruption of cell membrane integrity in penicillin-susceptible Escherichia coli ATCC25922 assessed as scattered leakage of content at 4 times of MIC incubated for 2 hrs by transmission electron microscopic analysis. The format is cell membranes.
In data set [12] the test system is Escherichia coli. In words: Drug resistance, ratio of MIC for penicillin-susceptible Escherichia coli ATCC25922 incubated for 18 to 24 hrs and measured after 4 passages to MIC for penicillin-susceptible Escherichia coli ATCC25922 measured after 18 to 24 hrs. The format is functional.
For data set [13], the system named is Staphylococcus aureus. In words: Inhibition of biofilm formation in methicillin-resistant Staphylococcus aureus ATCC43300 assessed as decrease in biofilm formation rate at 16 times of MIC incubated for 24 hrs by crystal violet staining based analysis relative to control. The format is functional. The arrangement: scale not given: the % may be the effect or the level left.

Regarding `O=C1c2ccccc2-[n+]2ccc3c([nH]c4ccc(-c5ccccc5C(F)(F)F)cc43)c21.[Cl-]`, the result with Escherichia coli [1] and with Escherichia coli [4] was inactive. Further, the outcome with Escherichia coli [2] was Active. Also, the Activity in the data set on Escherichia coli [3] amounted to 3 log10CFU/ml. Also, the viability at 24 h, 6.25 microg/ml in [5] was 57%. The viability at 24 h, 3.125 microg/ml in [6] is 81%.
For the molecule `O=C1c2ccccc2-[n+]2ccc3c([nH]c4ccc(-c5ccccc5Cl)cc43)c21.[Cl-]`, the outcome in the data set on Cell membrane [7], in the data set with Escherichia coli [10] and in the data set on Cell membrane [11] was Active. Further, the Activity with Staphylococcus aureus [8] was determined as 15%; in the data set on Escherichia coli [9], 1 log10CFU/ml.
With `O=C1c2ccccc2-[n+]2ccc3c([nH]c4ccc(-c5ccccc5F)cc43)c21.[Cl-]`, the Ratio in the data set on Escherichia coli [12] stood at 12. Further, the Activity in the data set with Staphylococcus aureus [13] is on record as 12%.

These data come from ChEMBL document CHEMBL5500342, “Rational molecular design converting fascaplysin derivatives to potent broad-spectrum inhibitors against bacterial pathogens via targeting FtsZ” (Eur J Med Chem, 2024).
